Laboratory results as given in ChEMBL document CHEMBL3112536, “Pd-N-heterocyclic carbene catalyzed synthesis of piperidine alkene-alkaloids and their anti-cancer evaluation” (Bioorg Med Chem Lett, 2014).
Converted amounts (≈) assume the structure as drawn.

Experiments:
Format in all cases: functional, cell-based
MCF7 = experiment: Cytotoxicity against human MCF7 cells assessed as growth inhibition after 24 hrs by MTT assay; details: MCF7, 24 h
A549 = experiment: Cytotoxicity against human A549 cells assessed as growth inhibition after 24 hrs by MTT assay; details: A549, 24 h
OVCAR-3 = experiment: Cytotoxicity against human OVCAR3 cells assessed as growth inhibition after 24 hrs by MTT assay; details: OVCAR-3, 24 h

SMILES | IC50 (MCF7) [µg/mL] | IC50 (A549) [µg/mL] | IC50 (OVCAR-3) [µg/mL]
CC(=O)c1ccc(/C=C/[C@@H]2CCCCN2)cc1 | 2.7 (≈ 11.8 µM) | 3.69 (≈ 16.1 µM) | 2.18 (≈ 9.51 µM)
CCc1ccc(/C=C/[C@@H]2CCCCN2)cc1 | 4.13 (≈ 19.2 µM) | 5.94 (≈ 27.6 µM) | 5.07 (≈ 23.5 µM)
COc1ccccc1/C=C/[C@@H]1CCCCN1 | 3.81 (≈ 17.5 µM) | 4.94 (≈ 22.7 µM) | 4.78 (≈ 22 µM)
COc1ccc(/C=C/[C@@H]2CCCCN2)cc1 | 3.57 (≈ 16.4 µM) | 4.33 (≈ 19.9 µM) | 3.31 (≈ 15.2 µM)
O=[N+]([O-])c1ccc(/C=C/[C@@H]2CCCCN2)cc1 | 2.15 (≈ 9.26 µM) | 3.27 (≈ 14.1 µM) | 1.02 (≈ 4.39 µM)
CN1CCCC[C@H]1/C=C/c1ccc(O)cc1 | 1.51 (≈ 6.95 µM) | 3.45 (≈ 15.9 µM) | 1.94 (≈ 8.93 µM)
Cc1cccc(C)c1/C=C/[C@@H]1CCCCN1 | 4.29 (≈ 19.9 µM) | 7.28 (≈ 33.8 µM) | 6.27 (≈ 29.1 µM)
FC(F)(F)c1ccc(/C=C/[C@@H]2CCCCN2)cc1 | 1.25 (≈ 4.9 µM) | 2.82 (≈ 11 µM) | 0.99 (≈ 3.88 µM)
C(=C\[C@@H]1CCCCN1)/c1ccccc1 | 9.15 (≈ 48.9 µM) | 9.99 (≈ 53.3 µM) | 10.5 (≈ 55.9 µM)
Cc1ccc(/C=C/[C@@H]2CCCCN2)cc1 | 5.35 (≈ 26.6 µM) | 8.56 (≈ 42.5 µM) | 8.48 (≈ 42.1 µM)
